Test results reported in patent US6329377A, “Ketomethylene group-containing cysteine and serine protease inhibitors” (Cephalon, Inc., priority 2000, dated 2001).

Key:
Assay type in all cases: biochemical
thrombin = target: T1, thrombin (Homo sapiens, UniProt P00734); assay: Inhibition of thrombin; details: 25 μM Bz-Phe-Val-Arg-AMC, pH 7.5, read-out: Thrombin % I @ 10 uM
T1 construct: purchased Sigma Chem. Co. T-7009
Description: (§1) To evaluate inhibitory activity, stock solutions (40 times concentrated) of each compound to be tested were prepared in 100% anhydrous DMSO and 5 μL of each inhibitor preparation were aliquoted into each of three wells of a 96-well plate. Calpain I, prepared by a modification of the method of W. J. Lee et al. (Biochem. Internatl. 22: 163-171 (1990)), was diluted into assay buffer (i.e., 50 mM Tris, 50 mM NaCl, 1 mM EDTA, 1 mM EGTA, and 5 mM-mercaptoethanol, pH 7.5 including 0.2 mM Succ-Leu-Tyr-MNA) and 175 μL aliquoted into the same wells containing the independent inhibitor stocks as well as to positive control wells containing 5 μL DMSO, but no compound. To start the reaction, 20 μL of 50 mM CaCl2 in assay buffer was added to all wells of the plate, excepting three, which were used as background signal baseline controls. Substrate hydrolysis was monitored every 5 minutes for a total of 30 minutes using a Fluoroskan II fluorescence plate reader. Substrate hydrolysis in the absence of inhibitor was linear for up to 15 minutes.
(§2) Inhibition of calpain I activity was calculated as the percent decrease in the rate of substrate (S) hydrolysis in the presence of inhibitor (I) relative to the rate in its absence (o). Comparison between the inhibited and control rates was made within the linear range for substrate hydrolysis. For screening, compounds were tested at 10 μM. Compounds having 50% inhibition at 10 μM were considered active. The IC50s of inhibitors (concentration yielding 50% inhibition) were determined from the percent decrease in the rates of substrate hydrolysis in the presence of five to seven different concentrations of the test compound. The results were plotted as % inhibition versus log inhibitor concentration and the IC50 was calculated from linear regression of the data. Apparent second order rate constants were determined from analysis of reaction progress curves under pseudo-first order conditions. Each determination represents the means of three or more independent single cuvette analyses continually monitored via a Perkin-Elmer LS50B spectrofluorimeter. The rate of inhibition of hydrolysis was obtained by fitting the curve to the exponential equation (1):
(§3) Additionally, because α-chymotrypsin is not a calcium sensitive enzyme and is constitutively active, following addition of inhibitor stocks to the 96 well plates, 100 μl of a 2-fold concentrated stock of enzyme in dilution buffer was first added and the reaction started by addition of 100 μl of a 2-fold concentrated stock of substrate in assay buffer. Substrate hydrolysis was monitored every 5 minutes up to 30 minutes using a Fluoroskan II ([…]).
Inhibition of thrombin (Sigma Chem. Co. Cat. #T-7009) was evaluated as described for chymotrypsin except that the assay was performed in 50 mM Tris, 10 mM CaCl2, pH 7.5 and the substrate was 25 μM Bz-Phe-Val-Arg-AMC (Bachem cat#I-1080).

Calpain I = target: T2, Calpain I (Homo sapiens, UniProt P07384); assay: Rate of inactivation of calpain I (second order rate constant); details: pH 7.5, pseudo-first order conditions, read-out: Calpain Inactivation Rates
T2 construct: made in house
T2 sequence (P07384 1-714): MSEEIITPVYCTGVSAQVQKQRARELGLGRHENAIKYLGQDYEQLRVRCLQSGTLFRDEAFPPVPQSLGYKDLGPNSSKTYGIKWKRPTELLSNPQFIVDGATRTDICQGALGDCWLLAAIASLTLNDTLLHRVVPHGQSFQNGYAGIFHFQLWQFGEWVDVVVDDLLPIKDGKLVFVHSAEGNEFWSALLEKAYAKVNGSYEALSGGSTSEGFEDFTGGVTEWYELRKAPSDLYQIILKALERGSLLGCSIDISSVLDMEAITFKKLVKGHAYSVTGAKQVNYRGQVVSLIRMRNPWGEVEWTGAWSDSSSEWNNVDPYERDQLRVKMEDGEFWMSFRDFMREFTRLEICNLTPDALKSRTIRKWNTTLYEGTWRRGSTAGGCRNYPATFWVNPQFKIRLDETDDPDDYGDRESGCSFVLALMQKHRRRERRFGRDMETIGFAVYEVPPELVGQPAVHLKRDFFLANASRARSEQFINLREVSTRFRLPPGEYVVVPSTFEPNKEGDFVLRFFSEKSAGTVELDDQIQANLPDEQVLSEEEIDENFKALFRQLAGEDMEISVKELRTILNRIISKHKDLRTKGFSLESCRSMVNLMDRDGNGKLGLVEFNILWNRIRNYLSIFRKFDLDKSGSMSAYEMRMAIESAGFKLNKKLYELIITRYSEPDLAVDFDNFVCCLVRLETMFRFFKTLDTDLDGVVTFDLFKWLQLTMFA
T2 sequence (P04632 1-268 partner): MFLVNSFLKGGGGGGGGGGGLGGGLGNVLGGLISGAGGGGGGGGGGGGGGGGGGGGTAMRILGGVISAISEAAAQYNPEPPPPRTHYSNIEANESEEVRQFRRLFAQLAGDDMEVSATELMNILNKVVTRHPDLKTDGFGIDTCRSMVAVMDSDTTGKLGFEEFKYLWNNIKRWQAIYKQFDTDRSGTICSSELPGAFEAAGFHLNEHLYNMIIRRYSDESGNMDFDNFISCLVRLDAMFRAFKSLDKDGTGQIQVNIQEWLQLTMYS
Description: as §1
as §2, with “The IC50s of inhibitors (concentration yielding 50% inhibition) were determined from the percent decrease in the rates of substrate hydrolysis in the presence of five to seven different concentrations of the test compound.” left out, “The rate of inhibition of hydrolysis was obtained by fitting the curve to the exponential equation (1):” left out
where y is the product formed at time t. […] The apparent second order rate constant kapp was determined as Kobs /[I]. […]

α-chymotrypsin = target: T3, α-chymotrypsin (Bos taurus, UniProt P00766); assay: Inhibition of α-chymotrypsin; details: pH 7.5, 10 μM, 0.03 mM Succ-Ala-Ala-Pro-Phe-AMC, read-out: Chymotrypsin % I @
T3 construct: purchased Sigma Chem. Co. C-3142
Description: as §1, §2, §3

inhibition at 10 µM (thrombin) [%]	kinact/KI (Calpain I) [M⁻¹ s⁻¹]	inhibition at 10 µM (α-chymotrypsin) [%]	SMILES
9	75600	98	CC(C)CC(CC(=O)C1c2ccccc2Oc2ccccc21)C(=O)NC(Cc1ccccc1)C(=O)CF (racemic) [Compound 14b, Xanthene-COCH2 CH(iBu)CO-Phe-CH2 F]
0	5800	33	CCC(C(=O)CC(CC(C)C)C(=O)NC(Cc1ccccc1)C(=O)CF)c1ccccc1 (stereo not drawn) [Compound 14a, CH3 CH2 CH(Ph)COCH2 CH(iBu)CO-Phe-CH2 F]
0	16800	82	CC(C)CC(CC(=O)[C@H](CC(C)C)NC(=O)OCc1ccccc1)C(=O)NC(Cc1ccccc1)C(=O)CF (stereo partly drawn) [Compound 14c, Z-Leu-CH2 CH(iBu)CO-Phe-CH2 F]
